# Laboratory results reported in US20110239332A1, “PROPAGATION OF SWITCHGRASS AND MISCANTHUS” (priority 2008, published 2011).
# Assays:
# switchgrass shoots [1] = conditions: 8 weeks (12 weeks to plant), 29° C., BAP as only plant hormone; cited from earlier work
# switchgrass shoots [2] = assay: In vitro shoot multiplication of switchgrass in culture media; format: cell-based, Panicum virgatum L.
# Protocol: A drawback of the use of known propagation conditions is a limited shoot multiplication rate. […] Alexandrova described how to multiply up to 500 shoots from one plant in 8 weeks (12 weeks to plant) at 29° C. and used only one plant hormone Benzylaminopurine (BAP) for multiplication of switchgrass shoots (Alexandrova et al. 1996). However, it has been discovered that 31° C. is a preferable temperature for multiplication of switchgrass shoots. It has also been discovered that liquid medium is preferable for increased multiplication. Applicants optimized multiplication of Switchgrass shoots with a combination of several plant hormones Benzylaminopurine+Naphthaleneacetic acid+Thidiazuron+Paclobutrazol (BAP+NAA+TDZ+PBZ).
# It was discovered that an increase in the amount of 6 micro-elements restored growth to shoots and prevented shoot death and, in particular, an increase in the amount of CuSO4.7H2O added to the media increased multiplication rates increased up to about 7× every 3 weeks. MS media contains 0.025 mg/L CuSO4.7H2O. An increase of up to about 10× every 3 weeks in multiplication rate was achieved when shoots were broken apart every 2-3 weeks. […]
# Miscanthus shoots = assay: In vitro shoot multiplication of Miscanthus in culture media; format: cell-based, Miscanthus × giganteus; conditions: high TDZ (1.65 mg/L) compared with about 0.25 mg/L TDZ, media at 31° C.
# Protocol: In propagating Miscanthus stem nodes in culture media, Nielsen used high amounts of Thidiazuron (TDZ) (1.65 mg/L), which is a cost limiting hormone additive in shoot multiplication growth media (Nielsen et. al. 1993; Nielsen et. al. 1995).
# Stems of actively growing Miscanthus × giganteus having dormant nodes were harvested and sterilized using 1.5% sodium hypochlorite (25% bleach) solution followed by three rinses using sterile water. Stem segments comprising nodes were cut to 3 cm long and then cut longitudinally down the center of the each stem. The prepared stem portions were then placed under growth conditions of 50 μE of light and a 16 h day. The temperature was 31° C. Stem segments were grown in […] Petri plates for solid culture, however any suitable sterile container can be used for solid or liquid culture. Time between sub-culturing was 14-21 days. Shoots were cut to 3-4 cm in length when sub-culturing.
# The media used for the above-described growth conditions comprised MS medium plus vitamins (full strength) (Phytotechnologies™ Product ID-M519), 30 g/L sucrose (87.7 mM), […] MgCl2 (750 mg/L of MgCl2.6H2O), pH 5.6 for semi-solid media, […], and 6 g/L agar. The following hormones were added after autoclaving of the media. […]
smiles,measurement,setting,value
"c1ccc(CNc2ncnc3[nH]cnc23)cc1 [BAP, Benzylaminopurine]",shoots multiplied from one plant,switchgrass shoots [1],up to 500 shoots
O.O.O.O.O.O.O.O=S(=O)([O-])[O-].[Cu+2] [CuSO4.7H2O],shoot multiplication rate,"switchgrass shoots [2]; increased CuSO4.7H2O, shoots broken apart every 2-3 weeks",about 10 × every 3 weeks
same,shoot multiplication rate,switchgrass shoots [2]; increased amount of CuSO4.7H2O added to the media (MS media contains 0.025 mg/L),about 7 × every 3 weeks
"O=C(Nc1ccccc1)Nc1cnns1 [TDZ, Thidiazuron]",shoot thickness and shoot production,Miscanthus shoots,multiplied shoots were thinner and shoot production was less
